{"source": "patent US20220169632A1", "about": "“METHODS AND MATERIALS FOR INCREASING OR MAINTAINING NICOTINAMIDE MONONUCLEOTIDE ADENYLYL TRANSFERASE-2 (NMNAT2) POLYPEPTIDE LEVELS” (University of Pittsburgh - Of the Commonwealth System of …, priority 2019, published 2022)", "system": "NMNAT2", "test": "NMNAT2-Hibit nano-luciferase activity in stably transfected U87MG cells, various concentrations, 24 hours", "assay_type": "cell-based", "conditions": "U87MG cells stably transfected with NMNAT2-Hibit luc plasmid", "procedure": "Selected compounds were tested in vitro. U87MG cells were stably transfected with NMNAT2-Hibit luc plasmid. Cells were treated with a test compound at various concentrations for 24 hours. Cells were then collected and assayed for nano-luciferase activity."}
{"compound": "O=C1CC(c2cn(Cc3cccc(F)c3)c3ccccc23)CCN1", "note": "(stereo not shown) [BC20339]", "values": [{"measurement": "E: compound efficacy for NMNAT2 activation (concentration giving >25% increase in NMNAT2 luciferase activity)", "result": "+ (“+” >25% increase in NMNAT2 luciferase activity at >25 μM.)"}]}
{"compound": "O=C1CC(c2cn(Cc3cccc(F)c3)c3ccccc23)CCN1CCOc1ccc(F)cc1", "note": "(stereo not shown) [BC20340]", "values": [{"measurement": "E: compound efficacy for NMNAT2 activation (concentration giving >25% increase in NMNAT2 luciferase activity)", "result": "+ (“+” >25% increase in NMNAT2 luciferase activity at >25 μM.)"}]}
{"compound": "O=C1c2cccc3c2c(cn3Cc2cccc(F)c2)CCN1CCOc1ccccc1", "note": "[BC20341]", "values": [{"measurement": "E: compound efficacy for NMNAT2 activation (concentration giving >25% increase in NMNAT2 luciferase activity)", "result": "+ (“+” >25% increase in NMNAT2 luciferase activity at >25 μM.)"}]}
{"compound": "O=C1c2cccc3c2c(cn3Cc2cccc(F)c2)CCN1CCOc1ccc(F)cc1", "note": "[BC20342]", "values": [{"measurement": "E: compound efficacy for NMNAT2 activation (concentration giving >25% increase in NMNAT2 luciferase activity)", "result": "+ (“+” >25% increase in NMNAT2 luciferase activity at >25 μM.)"}]}
{"compound": "Cc1ccc(C)c(Cn2cc3c4c(cccc42)C(=O)N(CCOc2ccccc2)CC3)c1", "note": "[BC20343]", "values": [{"measurement": "E: compound efficacy for NMNAT2 activation (concentration giving >25% increase in NMNAT2 luciferase activity)", "result": "+ (“+” >25% increase in NMNAT2 luciferase activity at >25 μM.)"}]}
{"compound": "Cc1ccc(C)c(Cn2c(C(F)F)c(CCC(=O)NCc3ccco3)c3ccccc32)c1", "note": "[BC20354]", "values": [{"measurement": "E: compound efficacy for NMNAT2 activation (concentration giving >25% increase in NMNAT2 luciferase activity)", "result": "+ (“+” >25% increase in NMNAT2 luciferase activity at >25 μM.)"}]}
{"compound": "O=C(Cn1cc2c3c(cccc31)C(=O)N(Cc1cccc(F)c1)CC2)NCc1cccc(F)c1", "note": "[BC20355]", "values": [{"measurement": "E: compound efficacy for NMNAT2 activation (concentration giving >25% increase in NMNAT2 luciferase activity)", "result": "++ (“++” >25% increase in NMNAT2 luciferase activity at >1 μM ≤25 μM.)"}]}
{"compound": "Cc1ccccc1CNC(=O)Cn1cc2c3c(cccc31)C(=O)N(Cc1cccc(F)c1)CC2", "note": "[BC20356]", "values": [{"measurement": "E: compound efficacy for NMNAT2 activation (concentration giving >25% increase in NMNAT2 luciferase activity)", "result": "+ (“+” >25% increase in NMNAT2 luciferase activity at >25 μM.)"}]}
{"compound": "O=C(NCc1ccco1)N1CCc2c(c3ccccc3n2Cc2ccncc2)C1", "note": "[BC20357]", "values": [{"measurement": "E: compound efficacy for NMNAT2 activation (concentration giving >25% increase in NMNAT2 luciferase activity)", "result": "++ (“++” >25% increase in NMNAT2 luciferase activity at >1 μM ≤25 μM.)"}]}
{"compound": "O=C(NCC1CCCO1)N1CCc2c(c3ccccc3n2Cc2ccncc2)C1", "note": "(stereo not shown) [BC20358]", "values": [{"measurement": "E: compound efficacy for NMNAT2 activation (concentration giving >25% increase in NMNAT2 luciferase activity)", "result": "+ (“+” >25% increase in NMNAT2 luciferase activity at >25 μM.)"}]}
{"compound": "O=C(Nc1cc(F)ccc1F)N1CCc2c(c3ccccc3n2Cc2cccc(F)c2)C1", "note": "[BC20361]", "values": [{"measurement": "E: compound efficacy for NMNAT2 activation (concentration giving >25% increase in NMNAT2 luciferase activity)", "result": "++ (“++” >25% increase in NMNAT2 luciferase activity at >1 μM ≤25 μM.)"}]}
{"compound": "O=C(Nc1cccc(C(F)(F)F)c1)N1CCc2c(c3ccccc3n2Cc2cccc(F)c2)C1", "note": "[BC20362]", "values": [{"measurement": "E: compound efficacy for NMNAT2 activation (concentration giving >25% increase in NMNAT2 luciferase activity)", "result": "++ (“++” >25% increase in NMNAT2 luciferase activity at >1 μM ≤25 μM.)"}]}
{"compound": "Cc1ccc(C)c(Cn2c(C(F)F)c(CCC(=O)NCc3ccc(C)o3)c3ccccc32)c1", "note": "[BC20367]", "values": [{"measurement": "E: compound efficacy for NMNAT2 activation (concentration giving >25% increase in NMNAT2 luciferase activity)", "result": "++ (“++” >25% increase in NMNAT2 luciferase activity at >1 μM ≤25 μM.)"}]}
{"compound": "O=C(NCc1ccco1)C1CCCc2c1c1ccccc1n2Cc1cccc(F)c1", "note": "(stereo not shown) [BC20368]", "values": [{"measurement": "E: compound efficacy for NMNAT2 activation (concentration giving >25% increase in NMNAT2 luciferase activity)", "result": "++ (“++” >25% increase in NMNAT2 luciferase activity at >1 μM ≤25 μM.)"}]}
{"compound": "Cc1ccc(CNC(=O)C2CCCc3c2c2ccccc2n3Cc2cccc(F)c2)o1", "note": "(stereo not shown) [BC20369]", "values": [{"measurement": "E: compound efficacy for NMNAT2 activation (concentration giving >25% increase in NMNAT2 luciferase activity)", "result": "++ (“++” >25% increase in NMNAT2 luciferase activity at >1 μM ≤25 μM.)"}]}
{"compound": "O=C(NCC1CCCO1)C1CCCc2c1c1ccccc1n2Cc1cccc(F)c1", "note": "(stereo not shown) [BC20370]", "values": [{"measurement": "E: compound efficacy for NMNAT2 activation (concentration giving >25% increase in NMNAT2 luciferase activity)", "result": "+ (“+” >25% increase in NMNAT2 luciferase activity at >25 μM.)"}]}
{"compound": "O=C(NCc1cccc(F)c1)C1CCCc2c1c1ccccc1n2Cc1cccc(F)c1", "note": "(stereo not shown) [BC20371]", "values": [{"measurement": "E: compound efficacy for NMNAT2 activation (concentration giving >25% increase in NMNAT2 luciferase activity)", "result": "++ (“++” >25% increase in NMNAT2 luciferase activity at >1 μM ≤25 μM.)"}]}
{"compound": "Cc1ccccc1CNC(=O)C1CCCc2c1c1ccccc1n2Cc1cccc(F)c1", "note": "(stereo not shown) [BC20372]", "values": [{"measurement": "E: compound efficacy for NMNAT2 activation (concentration giving >25% increase in NMNAT2 luciferase activity)", "result": "+ (“+” >25% increase in NMNAT2 luciferase activity at >25 μM.)"}]}
{"compound": "Cc1cccc(CNC(=O)C2CCCc3c2c2ccccc2n3Cc2cccc(F)c2)c1", "note": "(stereo not shown) [BC20373]", "values": [{"measurement": "E: compound efficacy for NMNAT2 activation (concentration giving >25% increase in NMNAT2 luciferase activity)", "result": "+ (“+” >25% increase in NMNAT2 luciferase activity at >25 μM.)"}]}
